In the supplement of paper PMC13207355:

Tests used:
Conditions in all cases: exposure time: 72 h
FT3469 [1] = normal neural stem cell line; experiment: phenotypic distance (Euclidean, principal components) from DMSO controls (arbitrary units); higher = stronger morphological change
E34 [2] = patient-derived glioblastoma stem cells of proneural subtype; experiment: as above
E21 [3] = patient-derived glioblastoma stem cells of mesenchymal subtype; experiment: as above
E28 [4] = patient-derived glioblastoma stem cells of classical subtype; experiment: as above
E13 [5] = patient-derived glioblastoma stem cells of classical subtype; experiment: as above
E57 [6] = patient-derived glioblastoma stem cells of mesenchymal subtype; experiment: as above
E31 [7] = patient-derived glioblastoma stem cells of proneural subtype; experiment: as above
FT3469 [8] = experiment: surviving fraction (nuclei count normalised to DMSO); higher = more cells surviving (less toxic)
E34 [9] = experiment: as above
E21 [10] = experiment: as above
E28 [11] = experiment: as above
E13 [12] = experiment: as above
E57 [13] = experiment: as above
E31 [14] = experiment: as above
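Throughout, for phenotypic distance (Euclidean, principal components) from DMSO controls: cell Painting imaging in 384-well plates, CellProfiler features reduced to at least 20 principal components, Euclidean distance versus same-plate DMSO vehicle wells (0.1% v/v), median over six images per well.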
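Throughout, for surviving fraction (nuclei count normalised to DMSO): nuclei counted by high-content imaging of Hoechst-stained cells in laminin-coated 384-well plates, relative to 0.1% DMSO vehicle wells, with staurosporine as cell-death control.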

c1ccc2c(c1)[I+]c1ccccc1-2 [Diphenyleneiodonium chloride]
Conditions	phenotypic distance	surviving fraction
E13 [5], 4.1 nM	1.34	–
E13 [5], 12.3 nM	4.24	–
E13 [5], 37 nM	1.9	–
E13 [5], 111.1 nM	2.21	–
E13 [5], 333.3 nM	3.13	–
E13 [5], 1000 nM	5.26	–
E13 [5], 3000 nM	5.24	–
E13 [12], 4.1 nM	–	0.616
E13 [12], 12.3 nM	–	0.605
E13 [12], 37 nM	–	0.464
E13 [12], 111.1 nM	–	0.47
E13 [12], 333.3 nM	–	0.417
E13 [12], 1000 nM	–	0.331
E13 [12], 3000 nM	–	0.251
E21 [3], 4.1 nM	2.03	–
E21 [3], 12.3 nM	1.85	–
E21 [3], 37 nM	1.83	–
E21 [3], 111.1 nM	3.51	–
E21 [3], 333.3 nM	2.93	–
E21 [3], 1000 nM	3.58	–
E21 [3], 3000 nM	4.29	–
E21 [10], 4.1 nM	–	0.827
E21 [10], 12.3 nM	–	0.767
E21 [10], 37 nM	–	0.672
E21 [10], 111.1 nM	–	0.559
E21 [10], 333.3 nM	–	0.548
E21 [10], 1000 nM	–	0.525
E21 [10], 3000 nM	–	0.401
E28 [4], 4.1 nM	0.894	–
E28 [4], 12.3 nM	0.602	–
E28 [4], 37 nM	0.781	–
E28 [4], 111.1 nM	1.28	–
E28 [4], 333.3 nM	2.53	–
E28 [4], 1000 nM	2.98	–
E28 [4], 3000 nM	3.16	–
E28 [11], 4.1 nM	–	0.654
E28 [11], 12.3 nM	–	0.916
E28 [11], 37 nM	–	0.853
E28 [11], 111.1 nM	–	0.524
E28 [11], 333.3 nM	–	0.392
E28 [11], 1000 nM	–	0.319
E28 [11], 3000 nM	–	0.212
E31 [7], 4.1 nM	1.12	–
E31 [7], 12.3 nM	1.08	–
E31 [7], 37 nM	2.15	–
E31 [7], 111.1 nM	2.63	–
E31 [7], 333.3 nM	2.78	–
E31 [7], 1000 nM	3.14	–
E31 [7], 3000 nM	4.34	–
E31 [14], 4.1 nM	–	0.886
E31 [14], 12.3 nM	–	0.765
E31 [14], 37 nM	–	0.518
E31 [14], 111.1 nM	–	0.31
E31 [14], 333.3 nM	–	0.371
E31 [14], 1000 nM	–	0.338
E31 [14], 3000 nM	–	0.216
E34 [2], 4.1 nM	1.01	–
E34 [2], 12.3 nM	1.55	–
E34 [2], 37 nM	1.65	–
E34 [2], 111.1 nM	2.16	–
E34 [2], 333.3 nM	1.7	–
E34 [2], 1000 nM	3.29	–
E34 [2], 3000 nM	4.68	–
E34 [9], 4.1 nM	–	0.75
E34 [9], 12.3 nM	–	0.634
E34 [9], 37 nM	–	0.521
E34 [9], 111.1 nM	–	0.586
E34 [9], 333.3 nM	–	0.555
E34 [9], 1000 nM	–	0.519
E34 [9], 3000 nM	–	0.411
E57 [6], 4.1 nM	1.31	–
E57 [6], 12.3 nM	1.36	–
E57 [6], 37 nM	1.73	–
E57 [6], 111.1 nM	4.12	–
E57 [6], 333.3 nM	6.27	–
E57 [6], 1000 nM	6.54	–
E57 [6], 3000 nM	7.74	–
E57 [13], 4.1 nM	–	0.876
E57 [13], 12.3 nM	–	0.876
E57 [13], 37 nM	–	0.767
E57 [13], 111.1 nM	–	0.426
E57 [13], 333.3 nM	–	0.291
E57 [13], 1000 nM	–	0.266
E57 [13], 3000 nM	–	0.21
FT3469 [1], 4.1 nM	1.56	–
FT3469 [1], 12.3 nM	1.64	–
FT3469 [1], 37 nM	1.95	–
FT3469 [1], 111.1 nM	1.56	–
FT3469 [1], 333.3 nM	2.13	–
FT3469 [1], 1000 nM	2.73	–
FT3469 [1], 3000 nM	2.8	–
FT3469 [8], 4.1 nM	–	0.771
FT3469 [8], 12.3 nM	–	0.707
FT3469 [8], 37 nM	–	0.742
FT3469 [8], 111.1 nM	–	0.753
FT3469 [8], 333.3 nM	–	0.59
FT3469 [8], 1000 nM	–	0.473
FT3469 [8], 3000 nM	–	0.449

CC(=O)O[C@@]12CO[C@@H]1C[C@H](O)[C@@]1(C)C(=O)[C@H](O)C3=C(C)[C@@H](OC(=O)[C@H](O)[C@@H](NC(=O)OC(C)(C)C)c4ccccc4)C[C@@](O)([C@@H](OC(=O)c4ccccc4)[C@H]21)C3(C)C [Docetaxel]
Conditions	phenotypic distance	surviving fraction
E13 [5], 4.1 nM	5.48	–
E13 [5], 12.3 nM	5.06	–
E13 [5], 37 nM	5.13	–
E13 [5], 111.1 nM	5.06	–
E13 [5], 333.3 nM	5.38	–
E13 [5], 1000 nM	5.66	–
E13 [5], 3000 nM	5.29	–
E13 [12], 4.1 nM	–	0.244
E13 [12], 12.3 nM	–	0.245
E13 [12], 37 nM	–	0.23
E13 [12], 111.1 nM	–	0.267
E13 [12], 333.3 nM	–	0.26
E13 [12], 1000 nM	–	0.245
E13 [12], 3000 nM	–	0.233
E21 [3], 4.1 nM	5.81	–
E21 [3], 12.3 nM	6.42	–
E21 [3], 37 nM	6.23	–
E21 [3], 111.1 nM	6.28	–
E21 [3], 333.3 nM	6.05	–
E21 [3], 1000 nM	6.55	–
E21 [3], 3000 nM	6.95	–
E21 [10], 4.1 nM	–	0.256
E21 [10], 12.3 nM	–	0.291
E21 [10], 37 nM	–	0.273
E21 [10], 111.1 nM	–	0.267
E21 [10], 333.3 nM	–	0.324
E21 [10], 1000 nM	–	0.366
E21 [10], 3000 nM	–	0.306
E28 [4], 4.1 nM	3.2	–
E28 [4], 12.3 nM	3.04	–
E28 [4], 37 nM	3.71	–
E28 [4], 111.1 nM	4	–
E28 [4], 333.3 nM	4.1	–
E28 [4], 1000 nM	3.51	–
E28 [4], 3000 nM	3.95	–
E28 [11], 4.1 nM	–	0.337
E28 [11], 12.3 nM	–	0.342
E28 [11], 37 nM	–	0.315
E28 [11], 111.1 nM	–	0.374
E28 [11], 333.3 nM	–	0.359
E28 [11], 1000 nM	–	0.377
E28 [11], 3000 nM	–	0.43
E31 [7], 4.1 nM	3.61	–
E31 [7], 12.3 nM	4.17	–
E31 [7], 37 nM	4.04	–
E31 [7], 111.1 nM	3.51	–
E31 [7], 333.3 nM	4.45	–
E31 [7], 1000 nM	4.14	–
E31 [7], 3000 nM	3.26	–
E31 [14], 4.1 nM	–	0.175
E31 [14], 12.3 nM	–	0.112
E31 [14], 37 nM	–	0.146
E31 [14], 111.1 nM	–	0.157
E31 [14], 333.3 nM	–	0.134
E31 [14], 1000 nM	–	0.164
E31 [14], 3000 nM	–	0.2
E34 [2], 4.1 nM	4.14	–
E34 [2], 12.3 nM	3.76	–
E34 [2], 37 nM	3.17	–
E34 [2], 111.1 nM	3.96	–
E34 [2], 333.3 nM	3.99	–
E34 [2], 1000 nM	3.89	–
E34 [2], 3000 nM	3.75	–
E34 [9], 4.1 nM	–	0.43
E34 [9], 12.3 nM	–	0.452
E34 [9], 37 nM	–	0.497
E34 [9], 111.1 nM	–	0.38
E34 [9], 333.3 nM	–	0.438
E34 [9], 1000 nM	–	0.423
E34 [9], 3000 nM	–	0.551
E57 [6], 4.1 nM	5.76	–
E57 [6], 12.3 nM	5.68	–
E57 [6], 37 nM	5.22	–
E57 [6], 111.1 nM	5.42	–
E57 [6], 333.3 nM	5.4	–
E57 [6], 1000 nM	5.4	–
E57 [6], 3000 nM	5.26	–
E57 [13], 4.1 nM	–	0.0834
E57 [13], 12.3 nM	–	0.0809
E57 [13], 37 nM	–	0.078
E57 [13], 111.1 nM	–	0.0677
E57 [13], 333.3 nM	–	0.0873
E57 [13], 1000 nM	–	0.0902
E57 [13], 3000 nM	–	0.109
FT3469 [1], 4.1 nM	4.07	–
FT3469 [1], 12.3 nM	4.02	–
FT3469 [1], 37 nM	3.93	–
FT3469 [1], 111.1 nM	4.46	–
FT3469 [1], 333.3 nM	4.18	–
FT3469 [1], 1000 nM	4.11	–
FT3469 [1], 3000 nM	4.57	–
FT3469 [8], 4.1 nM	–	0.529
FT3469 [8], 12.3 nM	–	0.614
FT3469 [8], 37 nM	–	0.452
FT3469 [8], 111.1 nM	–	0.513
FT3469 [8], 333.3 nM	–	0.572
FT3469 [8], 1000 nM	–	0.497
FT3469 [8], 3000 nM	–	0.556
